We go through 15 compounds from US6407079B1, “Pharmaceutical compositions containing drugs which are instable or sparingly soluble in water and methods for their preparation” (Janssen Pharmaceutica N.V., priority 1985, dated 2002).

Values after ≈ are worked out from the molar mass of the structure shown. Where two headings read alike, the source gives them in different places.

For data set [1] the following is noted: 24 h.
A short description of data set [2]: physchem. The note with it: for solubility at 24 h: 25 °C, thermodynamic from solid; for Ratio S1:S2: 24 h, pH 6.6.
Data set [3] in a line: Solubility of drugs in 4% aqueous hydroxypropyl-methyl-β-cyclodextrin solution (Example 2B). The note with it: in water, 4% hydroxypropyl-methyl-β-cyclodextrin (DS 0.96; MS 0.43).
The nature of data set [4]: Storage stability of indometacin solutions, HPLC (Example 3). Type of data set: physicochemical. The note with it: for Indometacin content: 21° C. How it is done:
In 10 ml phosphate buffer solution 0.7 g hydroxyethyl-β-cyclodextrin (MS 0.43) were dissolved together with 0.04 g indometacin at 25° C. until a clear solution was formed. […] (B). In a parallel test a saturated indometacin solution in a phosphate buffer solution (0.21 mg/ml) was stored under the same conditions (A). The great improved stability of the composition according to the invention is apparent.

The conditions of data set [5]: German Offenlegungsschrift 31 18 218; cited from earlier work.
Data set [6] is described as follows: Dissolution rate of medroxyprogesterone acetate from tablet (Example 5). The class given is physicochemical. The settings on record: tablet with hydroxyethyl-β-cyclodextrin (MS 0.43), 5 mg drug per unit dose. Here is the method:
In 100 ml water 7 g hydroxyethyl-β-cyclodextrin (MS 0.43) and 0.5 g medroxyprogesterone acetate were dissolved. The water was then evaporated in a rotation evaporator The residue (75 mg) was powdered and after addition of 366 mg calcium hydrogen phosphate.2H2O, 60 mg corn starch, 120 mg cellulose powder (microcrystalline), 4.2 mg highly dispersed silica (AEROSIL® 200) and 4.8 mg magnesium stearate tablets with a weight of 630.0 mg and comprising 5 mg drug per unit dose were made. The dissolution rate of the medroxyprogesterone acetate from this formulation is 21 times higher when compared to a tablet comprising the same inert ingredients without addition of the β-cyclodextrin ether.

In data set [7] the test system is rats. The class given is in vivo. Here is the method:
The acute intravenous toxicity of some β-cyclodextrins was tested on rats with the following results.

The conditions of data set [8]: cited from earlier work.
Data set [9] concerns human red blood cells. As to the kind of experiment: Haemolytic effect on human red blood cells. The class given is cell-based. The note with it: 30 minutes at 37° C., optical density at 540 nm. How it is done: The haemolytic effect of the methylether according to German Offenlegungsschrift 31 18 218 was compared to that of an ether used according to the invention. To this end 100 μl of a physiological sodium chloride solution with a cyclodextrin content of 10%, 800 μl of a buffer (400 mg MOPS, 36 mg Na2HPO4.2H2O, 1,6 g NaCl in 200 ml H2O) and 100 μl of a suspension of human red blood cells (three times washed with sodium chloride solution) were mixed for 30 minutes at 37° C. Thereafter the mixture was centrifuged and the optical density was determined at 540 nm.
a) 100 μl sodium chloride solution+buffer+0% haemolysis
b) 900 μl water→100% haemolysis

[10] abbreviates: pH 6.6, aqueous with cosolvent or surfactant or cyclodextrin.

For `COc1cc(N)c(Cl)cc1C(=O)NC1CCN(CCCOc2ccc(F)cc2)CC1OC` (stereo not shown) [Cisapride], in data set [1], the “R, ratio of saturation solubility with and without β-cyclodextrin derivative” value was 3.

Turning to `C[C@@H]1C[C@H]2[C@@H]3CCC4=CC(=O)C=C[C@]4(C)[C@@]3(F)[C@@H](O)C[C@]2(C)[C@@]1(O)C(=O)CO` [Dexamethasone], the solubility at 24 h in data set [2] (pH 6.6, aqueous buffer) is 83 µg/mL (≈ 0.211 mM); in data set [2] (setting [10]), 14300 µg/mL (≈ 36.4 mM).

With `CCOC(=O)c1cncn1[C@H](C)c1ccccc1` [Etomidate], the “R, ratio of saturation solubility with and without β-cyclodextrin derivative” value in data set [3] is 8.5.

For the compound `COC(=O)Nc1nc2cc(C(=O)c3ccc(F)cc3)ccc2[nH]1` [Flubendazole], the “R, ratio of saturation solubility with and without β-cyclodextrin derivative” value in [1] is 30.

With `Fc1ccc(C(c2ccc(F)cc2)N2CCN(C/C=C/c3ccccc3)CC2)cc1` [Flunarizine], the “R, ratio of saturation solubility with and without β-cyclodextrin derivative” value in data set [1] was 18.

As to `COc1ccc2c(c1)c(CC(=O)O)c(C)n2C(=O)c1ccc(Cl)cc1` [Indometacine], the solubility at 24 h in data set [2] (pH 6.6, aqueous buffer) was 190 µg/mL (≈ 0.531 mM); in data set [2] (setting [10]), 5720 µg/mL (≈ 16 mM). Also, the “Ratio S1:S2” value in data set [2] is on record as 1:30.1. The Indometacin content in data set [4] (A: saturated solution in phosphate buffer, 0 weeks) turned out to be 100.1%; in data set [4] (A: saturated solution in phosphate buffer, 2 weeks) it was 91.2%; in [4] (A: saturated solution in phosphate buffer, 4 weeks), 79.1%; in data set [4] (A: saturated solution in phosphate buffer, 6 weeks), 69.8%; in data set [4] (A: saturated solution in phosphate buffer, 8 weeks) it was 64.8%; in data set [4] (B: with hydroxyethyl-β-cyclodextrin (MS 0.43) in phosphate buffer, 0 weeks) it was 99.7%. Further, the Indometacin content in data set [4] (B: with hydroxyethyl-β-cyclodextrin (MS 0.43) in phosphate buffer, 2 weeks) was 99.9%; in data set [4] (B: with hydroxyethyl-β-cyclodextrin (MS 0.43) in phosphate buffer, 4 weeks) it was 98.1%; in [4] (B: with hydroxyethyl-β-cyclodextrin (MS 0.43) in phosphate buffer, 6 weeks), 98.6%; in data set [4] (B: with hydroxyethyl-β-cyclodextrin (MS 0.43) in phosphate buffer, 8 weeks), 98.4%. For the same compound, the “Concentration of saturated indometacin solution in phosphate buffer solution” value in [4] (phosphate buffer solution, no cyclodextrin) is 210 µg/mL. Besides, the “Increase of water solubility with the 2,6-di-O-methyl derivative of β-cyclodextrin” value in data set [5] is 20.4 fold.

As for `CCC(C)n1ncn(-c2ccc(N3CCN(c4ccc(OCC5COC(Cn6cncn6)(c6ccc(Cl)cc6Cl)O5)cc4)CC3)cc2)c1=O` (stereo not shown) [Itraconazole], the figures for the “R, ratio of saturation solubility with and without β-cyclodextrin derivative” value in [1] (pH 2.5) and in data set [1] (pH 5) were 75 and 96, respectively.

With `CC(=O)N1CCN(c2ccc(OCC3COC(Cn4ccnc4)(c4ccc(Cl)cc4Cl)O3)cc2)CC1` (stereo not shown) [Ketoconazole], in [1], the “R, ratio of saturation solubility with and without β-cyclodextrin derivative” value is recorded as 85.

In the case of `C[C@@H]1CN([C@H]2CC[C@](C#N)(c3ccc(F)cc3)CC2)CC[C@]1(C(=O)O)c1ccccc1` [Levocabastine], the “R, ratio of saturation solubility with and without β-cyclodextrin derivative” value in [1] (pH 7.4) is 8; in [1] (pH 9.5), 81.

On to `CN(C)C(=O)C(CCN1CCC(O)(c2ccc(Cl)cc2)CC1)(c1ccccc1)c1ccccc1` [Loperamide], for which the “R, ratio of saturation solubility with and without β-cyclodextrin derivative” value in [3] was 62.

For the compound `CC(=O)[C@H]1CC[C@H]2[C@@H]3CCC4=CC(=O)CC[C@]4(C)[C@H]3CC[C@]12C` [Progesterone], the solubility at 24 h in data set [2] (pH 6.6, aqueous buffer) came out at 7.1 µg/mL (≈ 0.0226 mM); in data set [2] (setting [10]), 7690 µg/mL (≈ 24.5 mM). In addition, in data set [2], the “Ratio S1:S2” value is recorded as 1:1083.0.

Regarding `CCOC(=O)Nc1ccc(SC[C@@H]2CO[C@@](Cn3ccnc3)(c3ccc(Cl)cc3Cl)O2)cc1` [Tubulazole], the “R, ratio of saturation solubility with and without β-cyclodextrin derivative” value in data set [3] is given as 43.

As to `CC(=O)O[C@]1(C(C)=O)CC[C@H]2[C@@H]3C[C@H](C)C4=CC(=O)CC[C@]4(C)[C@H]3CC[C@@]21C` [medroxyprogesterone acetate], the “Dissolution rate, times higher than tablet without β-cyclodextrin ether” value in data set [6] turned out to be 21 times.

As for `OC[C@H]1O[C@@H]2O[C@H]3[C@H](O)[C@@H](O)[C@@H](O[C@H]4[C@H](O)[C@@H](O)[C@@H](O[C@H]5[C@H](O)[C@@H](O)[C@@H](O[C@H]6[C@H](O)[C@@H](O)[C@@H](O[C@H]7[C@H](O)[C@@H](O)[C@@H](O[C@H]8[C@H](O)[C@@H](O)[C@@H](O[C@H]1[C@H](O)[C@H]2O)O[C@@H]8CO)O[C@@H]7CO)O[C@@H]6CO)O[C@@H]5CO)O[C@@H]4CO)O[C@@H]3CO` [β-cyclodextrin], the “LD50 in rats (i.v.)” value in [7] worked out at 453 mg/kg bodyweight. The Water solubility in data set [8] was 1.8 g/100 ml.

For the compound “dimethyl-β-cyclodextrin [dimethyl-β-cyclodextrin (DS 2.0)]”, the “LD50 in rats (i.v.)” value in data set [7] was 200-207 mg/kg bodyweight. Further, in [9], the “C50%, concentration at which 50% haemolysis occurred” value was determined as 0.33% and the “C100%, concentration at which 100% haemolysis occurred” value is recorded as 0.5%.
